Legend:
[1] = tested on: IL-17A gene expression; assay: Effect on IL-23-induced cytokine expression in mice; assay type: in vivo, Balb/c mice; conditions: Mus musculus, 24 h, 30 min before and 8 hr after IL-23, ear tissue, versus the negative control group, read-out: percent inhibition of IL-17A gene expression
Method: Effect on IL-23-Induced Cytokine Expression in Mice
A mouse IL-23 solution (500 ng/10 μL, prepared by Takeda Pharmaceutical Company Limited) or PBS (10 μL, negative control group) was administered intradermally in the ear of Balb/c mice (Charles River Japan, male, 7 weeks old). Twenty-four hr after administration, the ear was resected under isoflurane anesthesia. The test compound was suspended in 0.5% methylcellulose and administered orally 30 min before and 8 hr after IL-23 administration.
RNA extraction from the ear tissue and quantitative PCR were performed as follows. Specifically, ear tissue 5 mm in diameter was punched from an area of the resected ear centering on the IL-23 injection site, and the tissue was immersed in RNAlater (QIAGEN) for at least 18 hr. The RNAlater-treated ear tissue was homogenized in 350 μL of RLT buffer (RNeasy mini kit, QIAGEN) and treated (55° C., 10 min) with Proteinase K (QIAGEN). Total RNA was then extracted according to the RNeasy mini kit protocol. The RNA thus obtained was then reverse transcribed into cDNA using the High-Capacity RNA-to-cDNA kit (Applied Biosystems), and the amount of each gene expressions was measured by real-time PCR (Viia7™, Applied Biosystems). The PCR buffer used was TaqMan Fast Advanced Master Mix (Applied Biosystems), and TaqMan Gene Expression Assays (Applied Biosystems) Mm00439618_m1 (IL-17A) and 4352341E (β-actin) were used for each gene detection. The IL-17A gene expression level was normalized to the β-actin gene expression level, and the percent inhibition of IL-17A gene expression with the test compound was then calculated.
The results (percent inhibition of IL-17A gene expression with oral administration of the test compound) measured by the above-mentioned method are shown in Table 9.

[2] = tested on: IL-23-induced mouse psoriasis model; assay: Effect in an IL-23-induced mouse psoriasis model; assay type: in vivo, Balb/c mice; conditions: versus the negative control group
Method: Effect in an IL-23-Induced Mouse Psoriasis Model
Mouse IL-23 (500 ng/15 μL, R&D) or PBS (15 μL, negative control group) was administered intradermally in the ear of Balb/c mice (Charles River Japan, male, 7 weeks old) 5 times every other days. Seven hr after IL-23 administration at 8 days after the initial administration (final administration), the mice were anesthetized with isoflurane, and ear thickness was measured with calipers. After the ear thickness was measured, the ear was resected, tissue 8 mm in diameter was punched from an area centering on the IL-23 injection site, and the tissue was weighed. The punched ear tissue was cut in half, and one half was immersion-fixed in 10% neutral buffer formalin solution for use in histopathological evaluation. The other half was immersed in RNAlater (QIAGEN) for at least 18 hr for use in an evaluation of the IL-17A mRNA expression level. The test compound was suspended in 0.5% methylcellulose and administered orally twice daily on consecutive days from 30 min before the initial IL-23 administration to 30 min before the final IL-23 administration.
The change in ear thickness in this model was evaluated by calculating the difference in measured thickness between before IL-23 administration and 7 hr after the final IL-23 administration. In addition, the formalin-fixed tissue was embedded and sectioned, then stained with hematoxylin-eosin. The degree of acanthosis was then evaluated qualitatively by microscopy (classified with a score of 0 to 4). RNA extraction from the ear tissue and quantitative PCR were performed as follows. As described above, ear tissue treated with RNAlater (QIAGEN) was homogenized in 350 μL of RLT buffer (RNeasy mini kit, QIAGEN) and treated (55° C., 10 min) with Proteinase K (QIAGEN). Total RNA was then extracted according to the RNeasy mini kit protocol. The RNA thus obtained was reverse transcribed into cDNA using the High-Capacity RNA-to-cDNA kit (Applied Biosystems), and the expression of each gene was measured by real-time PCR (Viia7™, Applied Biosystems). The PCR buffer used was TaqMan Fast Advanced Master Mix (Applied Biosystems), and TaqMan Gene Expression Assays (Applied Biosystems) Mm00439618_ml (IL-17A) and 4352341E (β-actin) were used to detect the genes. The IL-17A gene expression level was normalized to the β-actin gene expression level, and the percent inhibition of IL-17A gene expression with the test compound was then calculated.
The results (percent inhibition of ear thickness, acanthosis score and IL-17A gene expression with oral administration of the test compound) measured by the above-mentioned method are shown in Table 10.

[3] = tested on: T cell-transferred mouse colitis model; assay: Effect in a T cell-transferred mouse colitis model; assay type: in vivo, mice; conditions: 3 mg/kg oral twice daily; 21 days after cell transfer; versus the negative control group
Text: Effect in a T Cell-Transferred Mouse Colitis Model
Balb/c mice (Charles River Japan, female, 8 weeks old) were euthanized, and the spleens were resected, mashed in mesh, and passed through cell strainer to prepare a suspension of splenic cells. The mononuclear cell fraction in the splenic cells was isolated by density-gradient centrifugation, and subjected to hemolysis treatment with ammonium chloride buffer solution (Immuno-Biological Laboratories, Co., Ltd.). The naive T-cells were purified using CD4+CD62L+ T Cell Isolation Kit II (Miltenyi Biotec). The naive T-cells (2×10^5 cells/mouse) were intravenously transferred into SCIDmice (CLEA Japan, female, 8 weeks old). The compound was suspended in 0.5% methyl cellulose, and the suspension was orally administered twice daily on consecutive days from the same evening of the cell transfer. The mice were blinded 20 days after the cell transfer, and the symptom of the stool on floorcloth under blind was evaluated by scores of 1 to 4 (1: normal, 2: loose stool, 3: diarrhea (formed), 4: diarrhea (unformed)) 21 days after the cell transfer. […] The large intestine was washed with saline, and the weight was measured.
The results (percent inhibition of intestinal tract weight and diarrhea score with oral administration of the test compound) measured by the above-mentioned method are shown in Table 11.

[4] = tested on: mouse EAE model; assay: Effect in a mouse EAE model; assay type: in vivo, C57BL/6J mice; conditions: 3 mg/kg oral; integration value of the clinical score for 28 days; versus the negative control group
Method: Effect in a Mouse EAE Model
. C57BL/6J mice (10 weeks old, female, Charles River Japan) were grouped based on the body weight, and the MOG emulsion was intradermally administered at two point of the joint of dorsal hindlimb so that the dose was 100 μL/site, 200 μL/mouse. In addition, Pertussis toxin (Merck) was intraperitoneally administered twice on the sensitization day and 2 days thereafter in the dose of 400 ng/200 μL/mouse. The body weight was measured twice a week before onset and everyday (excluding holiday) after onset from the sensitization day. The clinical score was evaluated by the following standard scores of 0 to 5 (0: normal, 0.5: partial paralysis of tail, 1: complete paralysis of tail, 2: partial paralysis of hindlimb, 3: paralysis of lower body, 4: partial paralysis of forelimb, 5: paralysis of both forelimbs or death) by observation everyday (excluding holiday) after the beginning of onset.
The percent inhibition of the clinical score of the test compound administration group relative to that of the control group was calculated using integration value of the clinical score for 28 days.
The results (percent inhibition of clinical score with oral administration of the test compound) measured by the above-mentioned method are shown in Table 12.

Row | SMILES | inhibition in vivo at 10 mg/kg ([1]; 10 mg/kg oral) [%] | percent inhibition of IL-17A expression ([2]; 1 mg/kg oral twice daily) [%] | percent inhibition of acanthosis score ([2]; 1 mg/kg oral twice daily) [%] | percent inhibition of ear thickness ([2]; 1 mg/kg oral twice daily) [%] | percent inhibition of diarrhea score [3] [%] | percent inhibition of intestinal tract weight [3] [%] | inhibition in vivo at 3 mg/kg ([1]; 3 mg/kg oral) [%] | percent inhibition of IL-17A expression ([2]; 3 mg/kg oral twice daily) [%] | percent inhibition of acanthosis score ([2]; 3 mg/kg oral twice daily) [%] | percent inhibition of ear thickness ([2]; 3 mg/kg oral twice daily) [%] | percent inhibition of clinical score [4] [%]
1 | COc1ccc2c(n1)CCN(C(=O)[C@H]1C[C@@H](C(=O)O)C1)[C@H]2C(=O)Nc1cc(F)c2c(c1)CCC2(C)C [Example 10] | 87 | 91 | 47 | 52 | – | – | – | – | – | – | –
2 | COc1ccc2c(n1)CCN(C(=O)[C@H]1C[C@@H](CC(=O)O)C1)[C@H]2C(=O)Nc1cc(F)c2c(c1)CCC2(C)C [Example 15, (cis-3-(((5R)-5-((7-fluoro-1,1-dimethyl-2,3-dihydro-1H-inden-5-yl)carbamoyl)-2-methoxy-7,8-dihydro-1,6-naphthyridin-6(5H)-yl)carbonyl)cyclobutyl)acetic acid] | – | – | – | – | 81 | 58 | 99 | 93 | 53 | 61 | 64
